Measured values as given in patent publication US11866479B2, “HIV antibody derivatives with dual antiviral and immunomodulatory activities from CD4 and GP41” (priority 2016, dated 2024).

Legend:
[1] = test system: HIV-1 strain NL4-3; assay: Neutralization assay (TZM-bl, pseudovirus), NL4-3 isolate; assay type: cell-based
Experimental: HIV-1 isolates NL4-3, BaL, AC10, SVBP6, SVBP8, SVBP11, SVBP12, SVBP14, SVBP15, SVBP17, SVBP18 and SVBP19 were generated as pseudoviruses using Env expression plasmids and the pSG3 vector. See Sanchez-Palomino S, et al., Vaccine 2011; 29:5250-5259. Cell-free virus neutralization by the antibody derivatives was tested by a standard TZM-bl based assay. See Li, 2005, supra. Briefly, in a 96-well culture plate, 100 of previously diluted antibody derivatives were preincubated with 50 μL of pseudovirus stock, using 200 TCID50 (tissue culture infectious doses) at 37° C. for one hour. Then, 100 containing 10,000 TZM-bl luciferase-reporter target cells per well were added. Plates were cultured at 37° C. and 5% CO2 for 48 hours. […] A luciferase substrate, Britelite Plus (PerkinElmer, Inc., Waltham, Mass., USA), was used for the readout. Non-linear fit of neutralization data was calculated using normalized values fitted to a one site inhibition curve with variable Hill slope. […]
Briefly, in a 96-well culture plate, 100 μL of previously diluted plasma samples were preincubated with 50 μL of pseudovirus stock, using 200 TCID50 at 37° C. for one hour. […] A luciferase substrate, Britelite Plus (PerkinElmer, Inc., Waltham, Mass., USA), was used for the readout. Non-linear fit of neutralization data was calculated using normalized values fitted to a one site inhibition curve with variable Hill slope. […]

[2] = test system: panel of HIV subtype B viruses; assay: Neutralization assay against panel of HIV subtype B viruses (SVBP isolates); assay type: cell-based, HIV-1
Experimental: HIV-1 isolates NL4-3, BaL, AC10, SVBP6, SVBP8, SVBP11, SVBP12, SVBP14, SVBP15, SVBP17, SVBP18 and SVBP19 were generated as pseudoviruses using Env expression plasmids and the pSG3 vector. […] Cell-free virus neutralization by the antibody derivatives was tested by a standard TZM-bl based assay. […] Briefly, in a 96-well culture plate, 100 of previously diluted antibody derivatives were preincubated with 50 μL of pseudovirus stock, using 200 TCID50 (tissue culture infectious doses) at 37° C. for one hour. Then, 100 containing 10,000 TZM-bl luciferase-reporter target cells per well were added. Plates were cultured at 37° C. and 5% CO2 for 48 hours. Serial dilutions of the antibody derivatives were tested, from 1000 to 0.1 ng/mL. TZM-bl reporter cells were treated with dextran (Sigma-Aldrich, Saint Louis, Mo., USA) to enhance infectivity. A luciferase substrate, Britelite Plus (PerkinElmer, Inc., Waltham, Mass., USA), was used for the readout. Non-linear fit of neutralization data was calculated using normalized values fitted to a one site inhibition curve with variable Hill slope. All statistical analyses and non-linear fitting were performed using the GraphPad Prism v5.0 software. […]

[3] = test system: HIV-1 strain BaL; assay: Neutralization assay (TZM-bl, pseudovirus), BaL isolate; assay type: cell-based
Experimental: HIV-1 isolates NL4-3, BaL, AC10, SVBP6, SVBP8, SVBP11, SVBP12, SVBP14, SVBP15, SVBP17, SVBP18 and SVBP19 were generated as pseudoviruses using Env expression plasmids and the pSG3 vector. […] Cell-free virus neutralization by the antibody derivatives was tested by a standard TZM-bl based assay. […] Briefly, in a 96-well culture plate, 100 of previously diluted antibody derivatives were preincubated with 50 μL of pseudovirus stock, using 200 TCID50 (tissue culture infectious doses) at 37° C. for one hour. Then, 100 containing 10,000 TZM-bl luciferase-reporter target cells per well were added. Plates were cultured at 37° C. and 5% CO2 for 48 hours. Serial dilutions of the antibody derivatives were tested, from 1000 to 0.1 ng/mL. TZM-bl reporter cells were treated with dextran (Sigma-Aldrich, Saint Louis, Mo., USA) to enhance infectivity. A luciferase substrate, Britelite Plus (PerkinElmer, Inc., Waltham, Mass., USA), was used for the readout. Non-linear fit of neutralization data was calculated using normalized values fitted to a one site inhibition curve with variable Hill slope. All statistical analyses and non-linear fitting were performed using the GraphPad Prism v5.0 software.

## MOLECULE-0: CD4-IgG1 fusion protein, SEQ ID NO:11
[1]
  blocking the infectivity of NL4-3 (in words): lower neutralizing activity
[2]
  neutralization of panel of HIV subtype B isolates (in words): unable to neutralize primary isolates at 100 ng/mL
[3]
  blocking the infectivity of BaL (in words): lower neutralizing activity
